From paper PMC11014985, “TCTP regulates genotoxic stress and tumorigenicity via intercellular vesicular signaling” (EMBO Reports, 2024) come the findings set out here.

The target in the assay is T1, recombinant human TCTP (Homo sapiens, UniProt P13693).
T1 construct: gene TPT1; recombinant; RED-NHS fluorescently labelled for MST
T1 sequence (P13693 1-172): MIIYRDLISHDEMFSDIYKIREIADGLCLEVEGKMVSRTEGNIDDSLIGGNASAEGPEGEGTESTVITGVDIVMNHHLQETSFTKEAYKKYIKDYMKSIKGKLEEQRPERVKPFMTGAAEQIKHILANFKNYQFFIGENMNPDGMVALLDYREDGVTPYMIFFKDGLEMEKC
The assay is described as follows: microscale thermophoresis. The class given is binding.

SMILES strings stand for the structures.

By Kd is commonly meant the concentration at which binding is half-saturated.

For `CN[C@H]1CC[C@@H](c2ccc(Cl)c(Cl)c2)c2ccccc21` [sertraline], the Kd turned out to be 15.4 ± 1.4 µM. The value for `CSc1ccc2c(c1)N(CCC1CCCCN1C)c1ccccc1S2` (centres unmarked) [thioridazine] was 5.39 ± 2.1 µM.
